# Measured values from US8471005B2 (Cephalon, Inc., priority 2008, dated 2013).
# Read-outs that look alike come from different tables or passages of the source.
# What was measured:
# [1] = target: T1, ALK (Homo sapiens, UniProt Q9UM73); test: ALK Kinase Assay (ELISA/TRF, PLC-γ substrate); format: biochemical; conditions: read-out: ALK Potency
# T1 construct: host or cells: baculovirus expression system
# How it was run: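 Time-resolved fluorescence ELISA using Eu-N1 PT66 antibody to detect phosphorylated PLC-γ (coated at 10 μg/mL). Enzyme at 30 ng/ml ALK; 15 min incubation, 37° C.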
# [2] = target: T2, JAK2 (Homo sapiens, UniProt O60674); test: Recombinant Human JAK2 Kinase Assay (TRF); format: biochemical; conditions: read-out: JAK2 Potency
# T2 construct: host or cells: baculovirus expression system
# How it was run: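 Europium-labelled PY100 antibody reported tyrosine phosphorylation of a Neutravidin-captured biotinyl 15-mer peptide by JAK2 (baculovirus-expressed, 15 ng/ml). Conditions: 20 mM HEPES pH 7.2, 0.2 μM ATP, 1 mM MnCl2, 0.1% BSA, DMSO 2.5% final, 20 min at room temperature.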
# [3] = ALK kinase inhibition, 1 μM ATP
# [4] = JAK2 kinase inhibition, 0.2 μM ATP
# T1 sequence (Q9UM73 19-1620): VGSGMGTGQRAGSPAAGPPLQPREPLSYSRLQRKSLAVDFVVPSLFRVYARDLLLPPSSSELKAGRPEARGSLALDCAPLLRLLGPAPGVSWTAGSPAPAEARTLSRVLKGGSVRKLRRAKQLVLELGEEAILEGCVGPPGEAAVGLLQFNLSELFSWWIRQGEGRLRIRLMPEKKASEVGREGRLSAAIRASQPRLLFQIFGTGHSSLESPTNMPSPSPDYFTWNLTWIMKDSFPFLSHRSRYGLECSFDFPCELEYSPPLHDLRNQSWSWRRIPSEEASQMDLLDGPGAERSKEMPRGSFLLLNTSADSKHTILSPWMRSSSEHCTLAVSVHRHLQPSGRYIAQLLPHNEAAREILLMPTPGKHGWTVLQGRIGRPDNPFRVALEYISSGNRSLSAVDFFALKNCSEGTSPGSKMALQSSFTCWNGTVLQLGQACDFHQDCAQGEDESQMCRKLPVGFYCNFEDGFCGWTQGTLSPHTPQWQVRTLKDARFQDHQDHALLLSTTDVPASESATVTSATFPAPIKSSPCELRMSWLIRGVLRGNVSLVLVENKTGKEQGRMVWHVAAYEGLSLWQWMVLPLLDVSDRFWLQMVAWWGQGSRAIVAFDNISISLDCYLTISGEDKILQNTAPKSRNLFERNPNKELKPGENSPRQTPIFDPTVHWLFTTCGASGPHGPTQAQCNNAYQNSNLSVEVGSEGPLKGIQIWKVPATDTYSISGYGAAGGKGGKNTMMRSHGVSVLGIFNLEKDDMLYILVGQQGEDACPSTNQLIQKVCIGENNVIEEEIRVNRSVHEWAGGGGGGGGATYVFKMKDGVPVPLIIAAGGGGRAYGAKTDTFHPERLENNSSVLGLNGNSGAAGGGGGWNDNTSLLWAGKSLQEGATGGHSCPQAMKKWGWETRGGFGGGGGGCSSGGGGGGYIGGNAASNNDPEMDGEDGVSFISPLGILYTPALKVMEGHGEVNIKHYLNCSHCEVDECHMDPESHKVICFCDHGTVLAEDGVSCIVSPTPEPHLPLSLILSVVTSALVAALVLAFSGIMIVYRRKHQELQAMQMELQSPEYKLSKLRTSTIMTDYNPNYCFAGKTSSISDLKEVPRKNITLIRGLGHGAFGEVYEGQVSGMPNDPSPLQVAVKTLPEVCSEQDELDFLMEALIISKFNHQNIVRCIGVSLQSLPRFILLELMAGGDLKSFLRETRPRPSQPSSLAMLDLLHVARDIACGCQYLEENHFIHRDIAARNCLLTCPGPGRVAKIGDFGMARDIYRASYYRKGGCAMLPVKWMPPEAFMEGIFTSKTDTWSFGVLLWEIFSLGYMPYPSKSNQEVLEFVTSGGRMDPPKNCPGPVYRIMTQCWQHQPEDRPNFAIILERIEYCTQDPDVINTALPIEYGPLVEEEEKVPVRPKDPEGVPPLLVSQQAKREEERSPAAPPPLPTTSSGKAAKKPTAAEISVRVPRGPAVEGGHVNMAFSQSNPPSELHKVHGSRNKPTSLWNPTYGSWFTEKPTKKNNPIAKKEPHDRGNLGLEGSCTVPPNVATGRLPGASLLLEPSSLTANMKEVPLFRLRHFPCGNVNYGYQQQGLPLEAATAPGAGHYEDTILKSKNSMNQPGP
# T2 sequence (O60674 whole entry): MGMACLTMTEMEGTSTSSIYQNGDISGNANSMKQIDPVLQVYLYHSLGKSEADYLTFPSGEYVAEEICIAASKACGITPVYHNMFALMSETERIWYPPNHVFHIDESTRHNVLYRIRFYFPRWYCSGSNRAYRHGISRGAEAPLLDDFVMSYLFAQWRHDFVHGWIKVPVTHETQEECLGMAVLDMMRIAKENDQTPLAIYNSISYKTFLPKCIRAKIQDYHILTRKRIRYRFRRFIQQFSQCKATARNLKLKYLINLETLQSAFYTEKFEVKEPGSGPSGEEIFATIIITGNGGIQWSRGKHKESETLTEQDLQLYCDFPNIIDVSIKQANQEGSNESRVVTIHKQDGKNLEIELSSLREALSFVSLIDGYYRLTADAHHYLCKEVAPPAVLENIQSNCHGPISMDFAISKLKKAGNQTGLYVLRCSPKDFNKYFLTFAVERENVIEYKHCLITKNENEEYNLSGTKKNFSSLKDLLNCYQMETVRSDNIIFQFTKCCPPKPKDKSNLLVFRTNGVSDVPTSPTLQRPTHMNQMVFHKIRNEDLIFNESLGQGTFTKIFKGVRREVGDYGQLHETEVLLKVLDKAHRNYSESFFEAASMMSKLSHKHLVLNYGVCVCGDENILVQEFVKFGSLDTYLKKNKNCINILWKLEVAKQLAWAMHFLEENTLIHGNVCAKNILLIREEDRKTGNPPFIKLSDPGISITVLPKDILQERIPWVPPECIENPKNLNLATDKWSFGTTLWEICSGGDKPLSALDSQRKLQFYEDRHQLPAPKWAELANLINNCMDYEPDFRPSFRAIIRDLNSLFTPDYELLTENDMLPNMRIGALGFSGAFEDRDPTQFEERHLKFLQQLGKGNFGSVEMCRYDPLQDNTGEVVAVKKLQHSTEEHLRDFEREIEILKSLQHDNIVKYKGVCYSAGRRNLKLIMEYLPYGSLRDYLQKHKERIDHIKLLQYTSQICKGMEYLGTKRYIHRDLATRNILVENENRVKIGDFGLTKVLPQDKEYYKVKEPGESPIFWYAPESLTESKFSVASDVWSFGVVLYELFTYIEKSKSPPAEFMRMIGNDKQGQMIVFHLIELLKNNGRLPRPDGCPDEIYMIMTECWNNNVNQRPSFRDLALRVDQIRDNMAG
Structure (SMILES),"IC50 [1, 3] [nM]","IC50 [2, 4] [nM]",IC50 ([1]; ALK Kinase Inhibition) [nM],IC50 ([2]; JAK2 Kinase Inhibition) [nM]
"CN1C(=O)COc2cc(Nc3ncc4ccc(-c5ccccc5N(C)S(C)(=O)=O)n4n3)ccc21 [Example 640, N-Methyl-N-{2-[2-(4-methyl-3-oxo-3,4-dihydro-2H-benzo[1,4]oxazin-7-ylamino)-pyrrolo[2,1-f][1,2,4]triazin-7-yl]-phenyl}-methanesulfonamide]",100 to 1000,< 100,,
"COc1ccccc1-c1ccc2cnc(Nc3ccn(CCN4CCOCC4)n3)nn12 [Example 1183, [7-(2-Methoxy-phenyl)-pyrrolo[2,1-f][1,2,4]triazin-2-yl]-[1-(2-morpholin-4-yl-ethyl)-1H-pyrazol-3-yl]-amine]",100 to 1000,< 100,,
"CN1CCN(c2ccc(Nc3ncc4c(-c5ccc(F)cc5)ccn4n3)cc2)CC1 [Example 726, [5-(4-Fluoro-phenyl)-pyrrolo[2,1-f][1,2,4]triazin-2-yl]-[4-(4-methyl-piperazin-1-yl)-phenyl]-amine]",1000 to 10000,> 10000,,
"CS(=O)(=O)c1ccc(-c2ccc3cnc(Nc4ccc(N5CCC(CO)CC5)cc4)nn23)cc1 [Example 87, (1-{4-[7-(4-Methanesulfonyl-phenyl)-pyrrolo[2,1-f][1,2,4]triazin-2-ylamino]-phenyl}-piperidin-4-yl)-methanol]",,,1000 to 10000,< 100
"Cn1cnc2ccc(Nc3ncc4ccc(-c5cccc(S(=O)(=O)NC(C)(C)C)c5)n4n3)cc21 [Example 1300, N-tert-Butyl-3-[2-(3-methyl-3H-benzimidazol-5-ylamino)-pyrrolo[2,1-f][1,2,4]triazin-7-yl]-benzenesulfonamide]",100 to 1000,< 100,,
"CS(=O)(=O)c1ccc(-c2ccc3cnc(Nc4ccc(N5CCCC(N6CCOCC6)C5)cc4)nn23)cc1 (stereo not drawn) [Example 346, [7-(4-Methanesulfonyl-phenyl)-pyrrolo[2,1-f][1,2,4]triazin-2-yl]-[4-(3-morpholin-4-yl-piperidin-1-yl)-phenyl]-amine]",,,100 to 1000,< 100
"Cn1cc(-c2ccc3cnc(Nc4ccc5c(c4)NC(=O)C5)nn23)cn1 [Example 646, 6-[7-(1-Methyl-1H-pyrazol-4-yl)-pyrrolo[2,1-f][1,2,4]triazin-2-ylamino]-1,3-dihydro-indol-2-one]",1000 to 10000,< 100,,
"COc1ccccc1-c1ccc2cnc(Nc3ccc(N4CCC(N5CCN(C)CC5)CC4)cc3)nn12 [Example 310, [7-(2-Methoxy-phenyl)-pyrrolo[2,1-f][1,2,4]triazin-2-yl]-{4-[4-(4-methyl-piperazin-1-yl)-piperidin-1-yl]-phenyl}-amine]",,,< 100,< 100
"C[C@@H](O)CN1CCN(c2ccc(Nc3ncc4ccc(-c5cccc(Cl)c5)n4n3)cc2)CC1 [Example 208, (R)-1-(4-{4-[7-(3-Chloro-phenyl)-pyrrolo[2,1-f][1,2,4]triazin-2-ylamino]-phenyl}-piperazin-1-yl)-propan-2-ol]",,,100 to 1000,< 100
"COc1cccc(Nc2ncc3ccc(-c4cccc(S(=O)(=O)NC(C)(C)C)c4)n3n2)c1 [Example 1396, N-tert-Butyl-3-[2-(3-methoxy-phenylamino)-pyrrolo[2,1-f][1,2,4]triazin-7-yl]-benzenesulfonamide]",,,1000 to 10000,< 100
"CS(=O)(=O)Nc1ccccc1-c1ccc2cnc(Nc3ccc(N4CCOCC4)cc3)nn12 [Example 428, N-{2-[2-(4-Morpholin-4-yl-phenylamino)-pyrrolo[2,1-f][1,2,4]triazin-7-yl]-phenyl}-methanesulfonamide]",,,1000 to 10000,< 100
"COc1cc(Nc2ncc3ccc(-c4cc(Cl)ccc4OC)n3n2)cc(OC)c1 [Example 157, [7-(5-Chloro-2-methoxy-phenyl)-pyrrolo[2,1-f][1,2,4]triazin-2-yl]-(3,5-dimethoxy-phenyl)-amine]",,,100 to 1000,< 100
